Test results taken from patent publication US10329243B2, “Biphenyl derivative and uses thereof” (XI'AN LIBANG PHARMACEUTICAL CO., LTD, priority 2015, dated 2019).

Experiments:
Format in all cases: in vivo, SD rats
[1] = tested on: IL-1β; assay: Determination of IL-1β in brain tissue homogenate, cerebral ischemic reperfusion MCAO model; conditions: ischemic reperfusion MCAO rats; 40 mg/kg intravenously; 10% brain tissue homogenate, 24 h after reperfusion
Description: (§1) Rats were intraperitoneally injected with 10% chloral hydrate 350 mg/kg after anesthesia and opened up at the center of the neck in accordance with the Zea Longa modified method. The right common carotid artery was separated, and the right external carotid artery branches was ligated. A small opening was made at the distal end of the external carotid artery, and a previously prepared thread was inserted through the common carotid artery and the external carotid artery bifurcation into the internal carotid artery, till the anterior end of the middle cerebral artery, with an immersed depth of 18 to 19 mm. The thread was then secured, and the wound was sutured layer by layer. After the operation, the rats were placed in a clean incubator to wake up. […] The sham operation group, the ischemic reperfusion group, and the Example groups were prepared strictly according to the requirements of the cerebral ischemic reperfusion model, while in the sham operation group the thread was put only into the external carotid artery. The animals were allowed to eat and drink freely after waking up. After 2 h, the thread was pulled out to achieve reperfusion. The sham operation group, the ischemic reperfusion group, and the Example groups were administered intravenously the aqueous solution of the biphenyl derivatives in PEG400 at 40 mg/kg (40 mg/kg means that 40 mg of the test compound per kg of the body weight of rats) 30 min before reperfusion and 12 h after reperfusion, respectively. The sham operation group and the ischemic reperfusion group were injected with the same amount of blank PEG400 aqueous solution at the same time point.
(§2) 24 hours after reperfusion, 8 rats in each group were sacrificed by decapitation, the brain was removed, rinsed with PBS (pH 7.4) at −20° i for 20 min, evenly sliced (with a thickness of 2 mm), stained in a 2% TTC solution at 37°% in the dark for 30 min, fixed in 10% formalin for 24 h, and photographs were taken to analyze the infarct volume. A mixture of femoral arterial and venous blood was drawn from another 8 rats in each group under anesthesia, placed in a low temperature centrifuge at 4° C., centrifuged at 3500 r/min for 20 min, and the supernatant was stored in a refrigerator at −20° C. ready for SOD and MDA detection. After the blood was drawn, a perfusion needle was insert through the apex to the ascending aorta, and saline at 4° C. was rapid infused until the effluent became clear, followed by 4% paraformaldehyde phosphate buffer perfusion for fixation; the brain was removed by craniotomy, and brain tissues 2 mm in front of and behind the optic chiasma were taken and fixed, dehydrated, rendered transparent, impregnated in wax, and embedded. Brain continuous coronary tissue pathological sections were consecutively cut for later use. The remaining 8 rats in each group were sacrificed, brains were removed, the ischemic brain hemispheres were immediately taken on an ice tray, and 10% brain tissue homogenate was prepared for the detection of IL-1β and TNF-α.
(§3) Brain tissue homogenate was hypothermally centrifuged at 3000 rpm for 15 min, the supernatant was taken, and IL-1β and TNF-α were determined in strict accordance with instructions of the kits.

[2] = tested on: rats with cerebral ischemic reperfusion injury; assay: Relative infarct volume (TTC, imageJ), cerebral ischemic reperfusion MCAO model; conditions: ischemic reperfusion MCAO rats; 40 mg/kg intravenously 30 min before and 12 h after reperfusion; 24 h after reperfusion
Description: as §1, §2
The infarct area in each brain section was analyzed and quantified by the imageJ image software, and the ratio of cerebral infarction volume in the overall brain volume was calculated.

[3] = tested on: SOD; assay: SOD determination, cerebral ischemic reperfusion MCAO model; conditions: ischemic reperfusion MCAO rats; 40 mg/kg intravenously 30 min before and 12 h after reperfusion; serum, 24 h after reperfusion
Description: as §1, §2
(§4) SOD and MDA were determined strictly in accordance with instructions of the kit.

[4] = tested on: IL-1β; assay: Determination of IL-1β in brain tissue homogenate, permanent cerebral ischemia model; conditions: permanent cerebral ischemia model rats; 40 mg/kg intravenously; 10% brain tissue homogenate, 24 h after the embolism
Description: as §1, with “the permanent cerebral ischemia model” for “the ischemic reperfusion”, “up.” for “up. After 2 h, the thread was pulled out to achieve reperfusion.”, “before insertion of thread” for “before reperfusion”, “after embolism,” for “after reperfusion,”
as §2, with “the embolism,” for “reperfusion,”, “−20°i” for “−20° i”
as §3

[5] = tested on: SOD; assay: SOD determination, permanent cerebral ischemia model; conditions: permanent cerebral ischemia model rats; 40 mg/kg intravenously; serum, 24 h after the embolism
Description: as §1, with “the permanent cerebral ischemia model” for “the ischemic reperfusion”, “up.” for “up. After 2 h, the thread was pulled out to achieve reperfusion.”, “before insertion of thread” for “before reperfusion”, “after embolism,” for “after reperfusion,”
as §2, with “the embolism,” for “reperfusion,”, “−20°i” for “−20° i”
as §4

[6] = tested on: TNF-α; assay: Determination of TNF-α in brain tissue homogenate, cerebral ischemic reperfusion MCAO model; conditions: ischemic reperfusion MCAO rats; 40 mg/kg intravenously; 10% brain tissue homogenate, 24 h after reperfusion
Description: as §1, §2, §3

[7] = tested on: TNF-α; assay: Determination of TNF-α in brain tissue homogenate, permanent cerebral ischemia model; conditions: permanent cerebral ischemia model rats; 40 mg/kg intravenously; 10% brain tissue homogenate, 24 h after the embolism
Description: as §1, with “the permanent cerebral ischemia model” for “the ischemic reperfusion”, “up.” for “up. After 2 h, the thread was pulled out to achieve reperfusion.”, “before insertion of thread” for “before reperfusion”, “after embolism,” for “after reperfusion,”
as §2, with “the embolism,” for “reperfusion,”, “−20°i” for “−20° i”
as §3

Structure (SMILES): CC(=O)OC(C)Oc1c(C(C)C)cc(-c2cc(C(C)C)c(O)c(C(C)C)c2)cc1C(C)C (stereo not shown) [Example 12 group, Ethyl 1-(4′-hydroxy-3,3′,5,5′-tetraisopropylbiphenyl-4-oxo)acetate]
- IL-1β content [1]: 0.74 ± 0.06 ng/mL
- Relative Brain infarction volume (%) [2]: 25.54 ± 3.29 %
- SOD ACTIVITY (U/mL) [3]: 92.39 ± 5.27 U/mL
- IL-1β content [4]: 0.75 ± 0.04 ng/mL
- SOD ACTIVITY (U/mL) [5]: 91.25 ± 3.84 U/mL
- TNF-α content [6]: 4.95 ± 0.67 ng/mL
- TNF-α content [7]: 5.38 ± 0.59 ng/mL
